Test results taken from patent publication US20260092179A1, “GENETICALLY MODIFIED HOST CELLS PRODUCING VIOLACEIN, ANALOGUES, AND DERIVATIVES THEREOF” (OCTARINE BIO APS, priority 2022, published 2026).

What was measured:
[1] = Alkaline pH stability of dyed fabrics (colour fastness, ΔE); format: physicochemical; settings: pH 8 with NaOH
Procedure: (§1) In order to assess the stability and colour fastness of violacein and violacein derivatives dyed onto fabrics, dyed fabrics were subjected to a number of conditions. Fabrics were dyed according to Example 18 and colour coordinates and colour change before and after exposure to a given condition were determined as described in Example 18. To measure temperature stability, fabrics were incubated in an oven set to 80° c. for 4 h. To measure stability under acid and alkaline conditions, fabrics were fully submerged in water solutions set to pH 8 with NaOH and pH 5 with HCl and incubated at room temperature for 30 minutes. Fabrics were then incubated at 37° c. for 4 h. To measure stability during laundering, fabrics were washed at 30° c. under the “mix” setting of a Siemens IQ300 washing machine, then dried in a Siemens IQ300 dryer until dry. To measure artificial light stability, fabrics were placed under an LED lamp at room temperature for 16 h. To measure UV light stability, fabrics were placed under a UV lamp at room temperature for 1 h.

[2] = UV stability of dyed fabrics (colour fastness, ΔE); format: physicochemical; settings: for ΔE: before vs after UV lamp, room temperature, 1 h
Procedure: as §1

E. coli DH5a = experiment: Antimicrobial activity of dyed Nylon 6,6 fabric: final OD600 and % inhibition; format: cell-based; settings: for Final OD600: E. coli cultured overnight at 30° c. with dyed Nylon 6,6 fabric strip, starting OD600 0.1; for % Inhibition: E. coli, dyed Nylon 6,6 fabric vs undyed fabric control
Procedure: (§2) Violacein is reported as being a potent antibiotic, capable of inhibiting the growth of a wide range of microbial kingdoms including bacteria, yeast, fungi, viruses, protozoa and nematode. […] To test this, overnight cultures of wild-type E. coli DH5a and S. cerevisiae S228c strains were diluted in 5 mL of cultivation media (LB for E. coli, minimal media for S. cerevisiae) to a starting OD600 of 0.1. 1.5×1.5 cm dyed Nylon 6,6 fabric strips were sterilized by submerging in 75% ethanol for 15 mins and air drying in a laminar air flow hood before adding to each culture (with undyed Nylon 6,6 fabric as a negative control). […] This experiment provides evidence that all violacein derivatives display antimicrobial properties.

S. cerevisiae S228c = experiment: as above; format: cell-based; settings: for Final OD600: S. cerevisiae cultured overnight at 30° c. with dyed Nylon 6,6 fabric strip, starting OD600 0.1; for % Inhibition: S. cerevisiae, dyed Nylon 6,6 fabric vs undyed fabric control
Procedure: as §2

[3] = Free radical scavenging ability of dyed Nylon 6,6 fabric (DPPH); format: biochemical; settings: dyed Nylon 6,6 fabric strip; for OD517: 1 h in the dark in 5×10^−5 M DPPH in 100% ethanol; for Scavenging ability %: 1 h in the dark in 5×10^−5 M DPPH, vs undyed control
Procedure: Violacein is reported as being a potent antioxidant able to effectively scavenge free radicals. […] To test this, 1.5×1.5 cm dyed Nylon 6,6 fabric strips were incubated in the dark at room temperature for 1 h in 5 mL of a 5×10^−5 M DPPH free radical solution in 100% ethanol. Undyed Nylon 6,6 fabric strips were included as a negative control. After 1 h absorbance was measured at 517 nm and % scavenging ability calculated as above.

[4] = Acrylic, before and after the stability test
[5] = Bleached cotton, before and after the stability test
[6] = Diacetate, before and after the stability test
[7] = Nylon 6,6, before and after the stability test
[8] = Polyester, before and after the stability test
[9] = Wool, before and after the stability test
[10] = Acrylic, after test (UV lamp, room temperature, 1 h)
[11] = Bleached cotton, after test (UV lamp, room temperature, 1 h)
[12] = Diacetate, after test (UV lamp, room temperature, 1 h)
[13] = Nylon 6,6, after test (UV lamp, room temperature, 1 h)
[14] = Polyester, after test (UV lamp, room temperature, 1 h)
[15] = Wool, after test (UV lamp, room temperature, 1 h)

## O=C1NC(c2c[nH]c3ccccc23)=C/C1=C1\C(=O)Nc2ccccc21 [deoxyviolacein]
[1]; Acrylic, After test
  L: 59.52
  a: 0.99
  b: −2.75
[1]; Acrylic, Before test
  L: 60.91
  a: 1.48
  b: −2.6
[1]; [4]
  ΔE: 1.48
[1]; Bleached cotton, After test
  L: 62.83
  a: 2.23
  b: −8.43
[1]; Bleached cotton, Before test
  L: 61.33
  a: 1.92
  b: −9.6
[1]; [5]
  ΔE: 1.93
[1]; Diacetate, After test
  L: 53.77
  a: 9.48
  b: −13.38
[1]; Diacetate, Before test
  L: 53.4
  a: 9.48
  b: −14.88
[1]; [6]
  ΔE: 1.54
[1]; Nylon 6,6, After test
  L: 46
  a: 4.44
  b: −20.31
[1]; Nylon 6,6, Before test
  L: 45.47
  a: 6.49
  b: −22.12
[1]; [7]
  ΔE: 2.79
[1]; Polyester, After test
  L: 67.22
  a: 2.02
  b: −3.88
[1]; Polyester, Before test
  L: 66.7
  a: 1.3
  b: −4.19
[1]; [8]
  ΔE: 0.94
[1]; Wool, After test
  L: 66.95
  a: 0.82
  b: −0.41
[1]; Wool, Before test
  L: 65.33
  a: 0.19
  b: 0.13
[1]; [9]
  ΔE: 1.82
[2]; [10]
  L: 61.34
  a: 2.05
  b: −2.89
[2]; Acrylic, before test
  L: 60.15
  a: 1.07
  b: −2.07
[2]; Acrylic
  ΔE: 1.75
[2]; [11]
  L: 62.17
  a: 1.62
  b: −6.68
[2]; Bleached cotton, before test
  L: 61.4
  a: 1.8
  b: −7.92
[2]; Bleached cotton
  ΔE: 1.47
[2]; [12]
  L: 53.68
  a: 8.75
  b: −10.95
[2]; Diacetate, before test
  L: 52.05
  a: 9.98
  b: −14.88
[2]; Diacetate
  ΔE: 4.43
[2]; [13]
  L: 46.19
  a: 4.4
  b: −19.75
[2]; Nylon 6,6, before test
  L: 45.92
  a: 4.94
  b: −21.23
[2]; Nylon 6,6
  ΔE: 1.60
[2]; [14]
  L: 67.09
  a: 1.19
  b: −3.68
[2]; Polyester, before test
  L: 66.55
  a: 1.03
  b: −2.87
[2]; Polyester
  ΔE: 0.99
[2]; [15]
  L: 67.65
  a: 0.75
  b: 1.17
[2]; Wool, before test
  L: 65.56
  a: 0.65
  b: 0.31
[2]; Wool
  ΔE: 2.26
E. coli DH5a
  Final OD600: 4.62
  % Inhibition: 11.45%
S. cerevisiae S228c
  Final OD600: 4.99
  % Inhibition: 6.90%
[3]
  OD517: 1.43
  Scavenging ability %: 37.05%

## O=C1N=C(c2c[nH]c3ccc(O)cc23)C=C1c1c[nH]c2ccccc12 [proviolacein]
[1]; Acrylic, After test
  L: 58.76
  a: −2.16
  b: 3.85
[1]; Acrylic, Before test
  L: 57.87
  a: −0.46
  b: 1.91
[1]; [4]
  ΔE: 2.73
[1]; Bleached cotton, After test
  L: 64.37
  a: 2.22
  b: 2.08
[1]; Bleached cotton, Before test
  L: 63.78
  a: 2.31
  b: 1.4
[1]; [5]
  ΔE: 0.90
[1]; Diacetate, After test
  L: 61.54
  a: 3.25
  b: 6.78
[1]; Diacetate, Before test
  L: 60.55
  a: 3.12
  b: 6.29
[1]; [6]
  ΔE: 1.11
[1]; Nylon 6,6, After test
  L: 50.89
  a: −1.8
  b: −3.04
[1]; Nylon 6,6, Before test
  L: 52.98
  a: −2.5
  b: −3.65
[1]; [7]
  ΔE: 2.29
[1]; Polyester, After test
  L: 64.69
  a: −1.03
  b: −0.34
[1]; Polyester, Before test
  L: 64.55
  a: −2.15
  b: 1.47
[1]; [8]
  ΔE: 2.13
[1]; Wool, After test
  L: 65.28
  a: −1.97
  b: 5.42
[1]; Wool, Before test
  L: 65.56
  a: −2.33
  b: 7.35
[1]; [9]
  ΔE: 1.98
[2]; [10]
  L: 57.07
  a: 0.02
  b: 1.94
[2]; Acrylic, before test
  L: 57.31
  a: −0.99
  b: 2.73
[2]; Acrylic
  ΔE: 1.30
[2]; [11]
  L: 64.92
  a: 1.27
  b: 3.29
[2]; Bleached cotton, before test
  L: 64.65
  a: 0.4
  b: 2.43
[2]; Bleached cotton
  ΔE: 1.25
[2]; [12]
  L: 61.92
  a: 3.89
  b: 6.22
[2]; Diacetate, before test
  L: 61.25
  a: 3.87
  b: 4.46
[2]; Diacetate
  ΔE: 1.88
[2]; [13]
  L: 57.07
  a: 0.02
  b: 1.94
[2]; Nylon 6,6, before test
  L: 57.31
  a: −0.99
  b: 2.73
[2]; Nylon 6,6
  ΔE: 1.30
[2]; [14]
  L: 65.53
  a: −1.02
  b: 0.99
[2]; Polyester, before test
  L: 64.26
  a: −2.11
  b: 1.21
[2]; Polyester
  ΔE: 1.69
[2]; [15]
  L: 62.87
  a: −0.07
  b: 5.48
[2]; Wool, before test
  L: 62.43
  a: −0.15
  b: 5.23
[2]; Wool
  ΔE: 0.51
E. coli DH5a
  Final OD600: 4.52
  % Inhibition: 13.33%
S. cerevisiae S228c
  Final OD600: 4.39
  % Inhibition: 18.13%
S. cerevisiae S228c; dyed Nylon 6,6 fabric strip in culture, overnight 30° c., OD600 versus undyed fabric
  growth inhibition of S. cerevisiae: most inhibited
[3]
  OD517: 1.88
  Scavenging ability %: 17.27%
